# According to the supplement of paper PMC13380429:
# Experiments:
# Conditions in all cases: 72 h
# HepG2 [1] = assay: relative viability EC50 (midpoint between 100% and the lowest measured viability); higher = less toxic
# Calu-3 [2] = assay: as above
# U2OS [3] = assay: as above
# Vero E6 [4] = assay: as above
# Caco-2 [5] = assay: drug sensitivity score (DSS) for viability; higher = more toxic; extreme values may be limits of the assay
# HepG2 [6] = assay: as above
# Calu-3 [7] = assay: as above
# U2OS [8] = assay: as above
# Vero E6 [9] = assay: as above
# Caco-2 [10] = assay: cell viability relative to DMSO; higher = less toxic
# HepG2 [11] = assay: as above
# Calu-3 [12] = assay: as above
# U2OS [13] = assay: as above
# Vero E6 [14] = assay: as above
# Caco-2 [15] = assay: relative viability EC50 (midpoint between 100% and the lowest measured viability); higher = less toxic
Compound,relative viability EC50 (HepG2 [1]),relative viability EC50 (Calu-3 [2]),relative viability EC50 (U2OS [3]),relative viability EC50 (Vero E6 [4]),drug sensitivity score (Caco-2 [5]),drug sensitivity score (HepG2 [6]),drug sensitivity score (Calu-3 [7]),drug sensitivity score (U2OS [8]),drug sensitivity score (Vero E6 [9]),cell viability (Caco-2 [10]; 1 nM),cell viability (Caco-2 [10]; 10 nM),cell viability (Caco-2 [10]; 100 nM),cell viability (Caco-2 [10]; 1000 nM),cell viability (Caco-2 [10]; 10000 nM),cell viability (HepG2 [11]; 1 nM),cell viability (HepG2 [11]; 10 nM),cell viability (HepG2 [11]; 100 nM),cell viability (HepG2 [11]; 1000 nM),cell viability (HepG2 [11]; 10000 nM),cell viability (Calu-3 [12]; 1 nM),cell viability (Calu-3 [12]; 10 nM),cell viability (Calu-3 [12]; 100 nM),cell viability (Calu-3 [12]; 1000 nM),cell viability (Calu-3 [12]; 10000 nM),cell viability (U2OS [13]; 1 nM),cell viability (U2OS [13]; 10 nM),cell viability (U2OS [13]; 100 nM),cell viability (U2OS [13]; 1000 nM),cell viability (U2OS [13]; 10000 nM),cell viability (Vero E6 [14]; 1 nM),cell viability (Vero E6 [14]; 10 nM),cell viability (Vero E6 [14]; 100 nM),cell viability (Vero E6 [14]; 1000 nM),cell viability (Vero E6 [14]; 10000 nM),relative viability EC50 (Caco-2 [15])
COc1ccc(OC)c(CN(C(C)=O)c2cc(F)ccc2Oc2ccccc2)c1 [DAA-1106],> 10 µM,> 10 µM,> 10 µM,> 10 µM,0.9,0,0,0,0,93.4%,112%,93.1%,108%,71.4%,102%,105%,99.2%,95.7%,96%,103%,102%,93.7%,98.5%,98.1%,102%,107%,100%,96.5%,93.6%,102%,99%,103%,107%,101%,–
CSc1nc(N)cc(Oc2ccc(-c3nnc(Nc4cccc(C(F)(F)F)c4)[nH]3)cc2)n1 [KG-5],3.12 µM,–,2.26 µM,2.54 µM,6,4.2,3,4.8,4.5,96.7%,98.7%,105%,84.1%,35.2%,93.9%,96%,92.5%,99.6%,25.2%,90.3%,95.4%,92.7%,93.2%,61.8%,102%,101%,97.5%,92.9%,34.7%,98.9%,103%,105%,94.8%,33.1%,1.57 µM
N#Cc1c(-c2ccccc2)cc(-c2cc(Br)ccc2O)[nH]c1=O [TCS-PIM-1-1],> 10 µM,–,> 10 µM,> 10 µM,0.1,0,–,0,0,96.7%,101%,104%,97.5%,88.8%,94.9%,99.4%,99.7%,94.5%,99.2%,–,–,–,–,–,99%,96.3%,102%,97.6%,93.9%,96.9%,101%,95.5%,96%,93.1%,> 10 µM
CC(=O)[C@]1(N)Cc2c(O)c3c(c(O)c2[C@@H](O[C@H]2C[C@H](O)[C@H](O)CO2)C1)C(=O)c1ccccc1C3=O [amrubicin],1.96 µM,> 10 µM,–,1.87 µM,7.3,8.1,0,0.9,5.7,101%,105%,99.6%,86.9%,7.4%,105%,110%,103%,84.5%,-0.2%,96%,117%,114%,110%,86.7%,104%,99%,102%,102%,73.7%,96%,104%,99.8%,88.4%,32.1%,2.04 µM
CO[C@@]1(NC(=O)CSCC#N)C(=O)N2C(C(=O)O)=C(CSc3nnnn3C)CS[C@@H]21 [cefmetazole],> 10 µM,> 10 µM,–,> 10 µM,0,0,0,–,0,109%,106%,108%,94.7%,105%,106%,105%,99.7%,97.4%,117%,101%,97.6%,99.7%,108%,108%,–,–,–,–,–,96.7%,102%,102%,97.9%,93.2%,> 10 µM
CC1(COc2ccc3c(c2)ncn3-c2ccc3cccc(N4CCC(N)CC4)c3n2)COC1 [crenolanib],3.26 µM,–,3.26 µM,3.3 µM,0,4.9,–,4.9,4.1,101%,97.1%,102%,112%,94.5%,107%,103%,107%,101%,9.5%,–,–,–,–,–,106%,102%,106%,101%,9.4%,102%,104%,101%,102%,22.6%,> 10 µM
c1cc(-c2cnn3cc(-c4ccc(OCCN5CCCCC5)cc4)cnc23)ccn1 [dorsomorphin],2.52 µM,3.02 µM,2.31 µM,2.9 µM,3,6,2.9,6,5.5,96.8%,96.6%,89.4%,95.1%,56.5%,103%,103%,90.5%,93.1%,11.6%,102%,95.6%,99.4%,98.9%,47.4%,102%,104%,95.9%,91.4%,16.7%,98.5%,94.5%,102%,96.8%,9.1%,–
COC(=O)/C=C/c1cc(O)ccc1O [erbstatin-analog],3.37 µM,–,2.86 µM,1.41 µM,4.1,2.5,1.2,3.9,7.6,97.7%,102%,91.8%,94.3%,40.9%,92%,101%,99.8%,102%,50%,113%,97.6%,106%,99.2%,73.3%,101%,103%,95.2%,97.4%,34.8%,98.8%,96.1%,94.7%,74.8%,22.6%,2.37 µM
CN(C)CCCN1c2ccccc2CCc2ccccc21 [imipramine],> 10 µM,> 10 µM,> 10 µM,> 10 µM,–,0,0,0,0,–,–,–,–,–,95.9%,102%,104%,95.3%,98.1%,88.8%,105%,96.1%,108%,94.3%,101%,103%,96%,102%,90.4%,100%,98.7%,99.4%,96.6%,98.5%,–
CCN(CC)CC(=O)Nc1c(C)cccc1C [lidocaine],> 10 µM,–,> 10 µM,> 10 µM,3.6,0,–,0,0,103%,108%,90.8%,80.4%,97%,101%,97.4%,88.1%,116%,107%,–,–,–,–,–,99.7%,105%,94.8%,97.2%,100%,108%,101%,105%,97.8%,97.9%,> 10 µM
Cc1ccc(F)c(NC(=O)Nc2ccc(-c3cccc4[nH]nc(N)c34)cc2)c1 [linifanib],0.583 µM,–,> 10 µM,> 10 µM,0,12.8,2.7,0,0,101%,100%,101%,89.5%,106%,94.1%,110%,115%,29.9%,13.1%,106%,89.4%,99.1%,86.9%,69.9%,97.4%,96.6%,101%,96.5%,92.2%,93.1%,101%,99.9%,103%,110%,> 10 µM
COC(=O)N1CC[C@@H]2[C@H]1CCC[C@@]2(O)C#Cc1cccc(C)c1 [mavoglurant],> 10 µM,–,> 10 µM,> 10 µM,0,0,–,0,0,110%,120%,100%,98.4%,108%,102%,107%,95.5%,91.8%,114%,–,–,–,–,–,103%,99.9%,102%,101%,95.8%,104%,101%,106%,104%,97.4%,> 10 µM
CN(C(=O)CN(CCO)CC(=O)N(C)C(C)(C)Cc1ccccc1)C(C)(C)Cc1ccccc1 [oxethazaine],> 10 µM,2.86 µM,–,> 10 µM,1.9,0,3.4,1.9,0,90.7%,105%,102%,93.1%,74.6%,104%,101%,98.9%,111%,91.2%,94.4%,101%,100%,97.6%,42.2%,99.7%,97.5%,101%,97.2%,68.2%,94.8%,97.7%,93.7%,99.8%,101%,–
Cc1ccc(C(=O)Cn2c3c(sc2=N)CCCC3)cc1 [pifithrin-alpha],> 10 µM,–,> 10 µM,> 10 µM,0,0,–,0,0,102%,89.9%,97.1%,99.3%,90.1%,106%,97.3%,101%,100%,99%,–,–,–,–,–,96.6%,97.5%,92.9%,94.4%,93.5%,98.9%,97.2%,100%,98.9%,96.1%,> 10 µM
Fc1ccc(C(OCCN2CCN(CCCc3ccccc3)CC2)c2ccc(F)cc2)cc1 [vanoxerine],3.42 µM,> 10 µM,–,2.82 µM,3.8,4.6,0.6,1,3.9,103%,93.2%,99.9%,93.1%,50.3%,102%,102%,102%,104%,11%,102%,94.6%,102%,98.9%,81.2%,106%,102%,103%,102%,72.4%,107%,104%,104%,97.1%,35.3%,–
CC(C)(C)S(=O)(=O)N[C@H]1CC[C@H](C(=O)Nc2ccc(C(F)(F)F)cn2)CC1 [velneperit],> 10 µM,> 10 µM,–,> 10 µM,0,0,0,–,0,109%,98.1%,103%,91.7%,104%,100%,105%,105%,98.9%,98%,106%,103%,117%,95.5%,99.1%,–,–,–,–,–,94.4%,104%,98.4%,101%,94.5%,> 10 µM
